In PubChem BioAssay AID2060900 (Molecular Pharmacology Branch, DTP, NCI, 2025):
Several values for one entry are separate records, joined by “and”; a condition that tells them apart may be missing. Equal values may be shown once.

Tested on: 521955-158-R2-J5-PDC complex spheroids, viability
Test: Anticancer human tumor 521955-158-R2-J5-PDC patient-derived pancreatic carcinoma cell line growth inhibition [RAS]
Conditions: for viability, T/C: stronger effect = lower value
Procedure, shortened: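 Multi-cell-type spheroids: tumor cells plus HUVEC endothelial cells and mesenchymal stem cells. RAS-pathway inhibitors were combined with targeted agents, each dosed in half-log steps down from clinical Cmax, or from 10 microM when Cmax was unknown.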
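Further: compound exposure lasted seven days before the viability read.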
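Wherever viability, T/C is given: spheroids also contain HUVEC endothelial cells and mesenchymal stem cells as stroma.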

CC(=O)OC12COC1CC(O)C1(C)C(=O)C(O)C3=C(C)C(OC(=O)C(O)C(NC(=O)OC(C)(C)C)c4ccccc4)CC(O)(C(OC(=O)c4ccccc4)C21)C3(C)C (stereo unspecified) + CCn1c(-c2cc(N3CCN(C)CC3)cnc2C(C)OC)c2c3cc(ccc31)-c1csc(n1)CC(NC(=O)C1CC1C)C(=O)N1CCCC(N1)C(=O)OCC(C)(C)C2
IC50 (curve of first compound, second compound 0.000949 µM): < 0.0316 µM | IC50 (curve of first compound, second compound 0.003 µM): < 0.0316 µM | IC50 (curve of first compound, second compound 0.00949 µM): < 0.0316 µM | IC50 (curve of first compound, second compound 0.03 µM): < 0.0316 µM | IC50 (curve of first compound, second compound 0.0949 µM): < 0.0316 µM | IC50 (curve of first compound, second compound 0.3 µM): < 0.0316 µM | viability, T/C (second compound 0.000949 µM, first compound 0.0316 µM): 19.7% | viability, T/C (second compound 0.000949 µM, first compound 0.1 µM): 23.3% | viability, T/C (second compound 0.000949 µM, first compound 0.316 µM): 20.3% | viability, T/C (second compound 0.000949 µM, first compound 1 µM): 24.3% | viability, T/C (second compound 0.000949 µM, first compound 3.16 µM): 29.3% | viability, T/C (second compound 0.000949 µM, first compound 10 µM): 30.7% | viability, T/C (second compound 0.003 µM, first compound 0.0316 µM): 25.7% | viability, T/C (second compound 0.003 µM, first compound 0.1 µM): 21.4% | viability, T/C (second compound 0.003 µM, first compound 0.316 µM): 23.5% | viability, T/C (second compound 0.003 µM, first compound 1 µM): 28.9% | viability, T/C (second compound 0.003 µM, first compound 3.16 µM): 23.7% | viability, T/C (second compound 0.003 µM, first compound 10 µM): 26.8% | viability, T/C (second compound 0.00949 µM, first compound 0.0316 µM): 20.8% | viability, T/C (second compound 0.00949 µM, first compound 0.1 µM): 21.7% | viability, T/C (second compound 0.00949 µM, first compound 0.316 µM): 20.4% | viability, T/C (second compound 0.00949 µM, first compound 1 µM): 19.8% | viability, T/C (second compound 0.00949 µM, first compound 3.16 µM): 18.9% | viability, T/C (second compound 0.00949 µM, first compound 10 µM): 16.6% | viability, T/C (second compound 0.03 µM, first compound 0.0316 µM): 12.9% | viability, T/C (second compound 0.03 µM, first compound 0.1 µM): 12.8% | viability, T/C (second compound 0.03 µM, first compound 0.316 µM): 11.8% | viability, T/C (second compound 0.03 µM, first compound 1 µM): 16.9% | viability, T/C (second compound 0.03 µM, first compound 3.16 µM): 12.7% | viability, T/C (second compound 0.03 µM, first compound 10 µM): 9.64% | viability, T/C (second compound 0.0949 µM, first compound 0.0316 µM): 7.98% | viability, T/C (second compound 0.0949 µM, first compound 0.1 µM): 9.42% | viability, T/C (second compound 0.0949 µM, first compound 0.316 µM): 11.9% | viability, T/C (second compound 0.0949 µM, first compound 1 µM): 8.27% | viability, T/C (second compound 0.0949 µM, first compound 3.16 µM): 12.1% | viability, T/C (second compound 0.0949 µM, first compound 10 µM): 7.89% | viability, T/C (second compound 0.3 µM, first compound 0.0316 µM): 7.22% | viability, T/C (second compound 0.3 µM, first compound 0.1 µM): 8.9% | viability, T/C (second compound 0.3 µM, first compound 0.316 µM): 7.91% | viability, T/C (second compound 0.3 µM, first compound 1 µM): 11.6% | viability, T/C (second compound 0.3 µM, first compound 3.16 µM): 10.6% | viability, T/C (second compound 0.3 µM, first compound 10 µM): 7.75%

CC1(O)CCCC1n1c(=O)c(C(F)F)cc2cnc(NC3CCN(S(C)(=O)=O)CC3)nc21 (stereo unspecified) + C=CC(=O)N1CCN(c2nc(OCC3CCCN3C)nc3c(F)c(-c4nc(N)cc(C)c4C(F)(F)F)c(Cl)cc23)C(C)C1
IC50 (curve of first compound, second compound 0.00316 µM): 5.89 µM | IC50 (curve of first compound, second compound 0.01 µM): 6.18 µM | IC50 (curve of first compound, second compound 0.0316 µM): 6.07 µM | IC50 (curve of first compound, second compound 0.1 µM): 6.24 µM | IC50 (curve of first compound, second compound 0.316 µM): 6.02 µM | IC50 (curve of first compound, second compound 1 µM): 6.06 µM | viability, T/C (second compound 0.00316 µM, first compound 0.0316 µM): 93.1% | viability, T/C (second compound 0.00316 µM, first compound 0.1 µM): 83% | viability, T/C (second compound 0.00316 µM, first compound 0.316 µM): 81% | viability, T/C (second compound 0.00316 µM, first compound 1 µM): 80.9% | viability, T/C (second compound 0.00316 µM, first compound 3.16 µM): 121% | viability, T/C (second compound 0.00316 µM, first compound 10 µM): 14.4% | viability, T/C (second compound 0.01 µM, first compound 0.0316 µM): 85.9% | viability, T/C (second compound 0.01 µM, first compound 0.1 µM): 98% | viability, T/C (second compound 0.01 µM, first compound 0.316 µM): 78.6% | viability, T/C (second compound 0.01 µM, first compound 1 µM): 102% | viability, T/C (second compound 0.01 µM, first compound 3.16 µM): 112% | viability, T/C (second compound 0.01 µM, first compound 10 µM): 17.2% | viability, T/C (second compound 0.0316 µM, first compound 0.0316 µM): 87.7% | viability, T/C (second compound 0.0316 µM, first compound 0.1 µM): 121% | viability, T/C (second compound 0.0316 µM, first compound 0.316 µM): 80.2% | viability, T/C (second compound 0.0316 µM, first compound 1 µM): 96.4% | viability, T/C (second compound 0.0316 µM, first compound 3.16 µM): 108% | viability, T/C (second compound 0.0316 µM, first compound 10 µM): 12.7% | viability, T/C (second compound 0.1 µM, first compound 0.0316 µM): 135% | viability, T/C (second compound 0.1 µM, first compound 0.1 µM): 85.2% | viability, T/C (second compound 0.1 µM, first compound 0.316 µM): 75.2% | viability, T/C (second compound 0.1 µM, first compound 1 µM): 109% | viability, T/C (second compound 0.1 µM, first compound 3.16 µM): 111% | viability, T/C (second compound 0.1 µM, first compound 10 µM): 13% | viability, T/C (second compound 0.316 µM, first compound 0.0316 µM): 123% | viability, T/C (second compound 0.316 µM, first compound 0.1 µM): 79.3% | viability, T/C (second compound 0.316 µM, first compound 0.316 µM): 78.3% | viability, T/C (second compound 0.316 µM, first compound 1 µM): 89.8% | viability, T/C (second compound 0.316 µM, first compound 3.16 µM): 116% | viability, T/C (second compound 0.316 µM, first compound 10 µM): 12.7% | viability, T/C (second compound 1 µM, first compound 0.0316 µM): 127% | viability, T/C (second compound 1 µM, first compound 0.1 µM): 89.1% | viability, T/C (second compound 1 µM, first compound 0.316 µM): 69.5% | viability, T/C (second compound 1 µM, first compound 1 µM): 84% | viability, T/C (second compound 1 µM, first compound 3.16 µM): 119% | viability, T/C (second compound 1 µM, first compound 10 µM): 13%

CCn1c(-c2cc(N3CCN(C)CC3)cnc2C(C)OC)c2c3cc(ccc31)-c1csc(n1)CC(NC(=O)C1CC1C)C(=O)N1CCCC(N1)C(=O)OCC(C)(C)C2 (stereo unspecified)
viability, T/C (compound 0.000949 µM): 46.5% [middle of 8 runs] | viability, T/C (compound 0.003 µM): 40.6% [middle of 8 runs] | viability, T/C (compound 0.00949 µM): 37.5% [middle of 8 runs] | viability, T/C (compound 0.03 µM): 21.3% [middle of 8 runs] | viability, T/C (compound 0.0949 µM): 12.8% [middle of 8 runs] | viability, T/C (compound 0.3 µM): 10.2% [middle of 8 runs] | IC50 (compound alone, run of 05/20/2024): < 0.000949 µM and 0.00104 µM
